For eight compounds, carcinogen call results are on record in PubChem BioAssay AID1259411 (Chemical Carcinogenesis Research Information System (CCRIS), 2018).

Activity calls are given as the source filed them. The rule behind the calls is not given here.

The data set has as its system rodent carcinogenicity bioassays, tumor incidence. Briefly: CCRIS carcinogenicity studies. A digest of the protocol: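 NCI-built, expert-reviewed records of carcinogenicity and related test outcomes (mutagenicity, tumor promotion/inhibition) compiled from published and report sources, historical span 1985-2011, not updated.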

With `CCN(CCO)N=O`, the carcinogen call was “inactive; negative” (Species: HAMSTER, Strain/Sex: SYRIAN/MALE, Route: ORAL, Dose: 0, 1000, 2000 PPM IN DIET FOR 2 WK (STUDY DURATION: 30 WK), Dose: 0, 1000, 2000 PPM IN DIET FOR 2 WK (STUDY DURATION: 30 WK)); “active; positive” (Species: MOUSE, Strain/Sex: BALB/C/MALE, Route: ORAL, Dose: 0, 1000, 2000 PPM IN DRINKING WATER FOR 2 WK (STUDY DURATION: 52 WK), Dose: 0, 1000, 2000 PPM IN DRINKING WATER FOR 2 WK (STUDY DURATION: 52 WK), Tumor Site: Type of Lesion: LUNG: TUMOR); “active; positive” (Species: MOUSE, Strain/Sex: BALB/MALE, Route: ORAL, Dose: 0, 1000, 2000 PPM IN DIET FOR 2 WK (STUDY DURATION: 30 WK), Dose: 0, 1000, 2000 PPM IN DIET FOR 2 WK (STUDY DURATION: 30 WK), Tumor Site: Type of Lesion: LUNG: TUMOR); “active; positive” (Species: MOUSE, Strain/Sex: STRAIN-A/MALE, Route: ORAL, Dose: 0, 1000, 2000 PPM IN DIET FOR 2 WK (STUDY DURATION: 30 WK), Dose: 0, 1000, 2000 PPM IN DIET FOR 2 WK (STUDY DURATION: 30 WK), Tumor Site: Type of Lesion: LIVER: TUMOR, LUNG: TUMOR); “inactive; negative” (Species: RAT, Strain/Sex: F344/MALE, Route: ORAL, Dose: 0, 1000 PPM IN DIET FOR 2 WK (STUDY DURATION: 30 WK)); “active; positive” (Species: RAT, Strain/Sex: WISTAR/FEMALE, Route: ORAL, Dose: 0, 1000 PPM IN DIET FOR 2 WK (STUDY DURATION: 30 WK), Tumor Site: Type of Lesion: KIDNEY: RENAL CELL TUMOR). Further, the carcinogen call is, setting by setting: (Species: RAT, Strain/Sex: WISTAR/MALE, Route: ORAL, Dose: 0, 1000, 2000 PPM IN DRINKING WATER FOR 2 WK (STUDY DURATION: 52 WK), Dose: 0, 1000, 2000 PPM IN DRINKING WATER FOR 2 WK (STUDY DURATION: 52 WK), Tumor Site: Type of Lesion: KIDNEY: TUMOR) “active; positive”; (Species: RAT, Strain/Sex: WISTAR/MALE, Route: ORAL, Dose: 0, 1000 PPM IN DIET FOR 2 WK (STUDY DURATION: 30 WK), Tumor Site: Type of Lesion: KIDNEY: RENAL CELL TUMOR, LIVER: TUMOR) “active; positive”; (Species: RAT, Strain/Sex: WISTAR/MALE, Route: ORAL, Dose: 0, 1000 PPM IN DRINKING WATER FOR 2 WK (STUDY DURATION: 30 WK), Tumor Site: Type of Lesion: KIDNEY: RENAL CELL TUMOR) “active; positive”.
Turning to `O=C1C=Cc2cccc3cccc1c23`, the carcinogen call reads like this: (Species: MOUSE, Strain/Sex: ICR/FEMALE, Route: INTRAPERITONEAL, Dose: 0, 0.84, 2.1, 4.2 MG (TOTAL DOSES) ADMINISTERED TO NEWBORN MICE AS 1/7 ON DAY 1, 2/7 ON DAY 8 AND 4/7 ON DAY 15 (STUDY D, Dose: 0, 0.84, 2.1, 4.2 MG (TOTAL DOSES) ADMINISTERED TO NEWBORN MICE AS 1/7 ON DAY 1, 2/7 ON DAY 8 AND 4/7 ON DAY 15 (STUDY D) “inactive; negative”; (Species: MOUSE, Strain/Sex: ICR/MALE, Route: INTRAPERITONEAL, Dose: 0, 0.84, 2.1, 4.2 MG (TOTAL DOSES) ADMINISTERED TO NEWBORN MICE AS 1/7 ON DAY 1, 2/7 ON DAY 8 AND 4/7 ON DAY 15 (STUDY D, Dose: 0, 0.84, 2.1, 4.2 MG (TOTAL DOSES) ADMINISTERED TO NEWBORN MICE AS 1/7 ON DAY 1, 2/7 ON DAY 8 AND 4/7 ON DAY 15 (STUDY D, Tumor Site: Type of Lesion: LUNG: TUMOR) “active; positive”.
As for `CC1(C)COC1=O`, the carcinogen call by setting is: (Species: MOUSE, Strain/Sex: B6C3F1/FEMALE, Route: GAVAGE, Dose: 0, 75, 150 MG/KG, Dose: 0, 75, 150 MG/KG) “inactive; negative”; (Species: MOUSE, Strain/Sex: B6C3F1/MALE, Route: GAVAGE, Dose: 0, 75, 150 MG/KG, Dose: 0, 75, 150 MG/KG) “inactive; negative”; (Species: RAT, Strain/Sex: F344/FEMALE, Route: GAVAGE, Dose: 0, 150, 300 MG/KG, Dose: 0, 150, 300 MG/KG, Tumor Site: Type of Lesion: STOMACH: SQUAMOUS CELL PAPILLOMA OR SQUAMOUS CELL CARCINOMA, UTERUS: ENDOMETRIAL STROMAL POLYP) “active; positive”; (Species: RAT, Strain/Sex: F344/MALE, Route: GAVAGE, Dose: 0, 150, 300 MG/KG, Dose: 0, 150, 300 MG/KG, Tumor Site: Type of Lesion: STOMACH: SQUAMOUS CELL PAPILLOMA OR SQUAMOUS CELL CARCINOMA, TESTES: INTERSTITIAL CELL TUMOR) “active; positive”.
On to `ClC(Cl)C(Cl)(Cl)Cl`, for which the carcinogen call is “active; positive” (Species: MOUSE, Strain/Sex: B6C3F1/FEMALE, Route: GAVAGE, Dose: 250, 500 MG/KG IN CORN OIL FOR 41-103 WK (STUDY DURATION: 41-103 WK), Tumor Site: Type of Lesion: LIVER: HEPATOCELLULAR ADENOMA, CARCINOMA); “active; positive” (Species: MOUSE, Strain/Sex: B6C3F1/MALE, Route: GAVAGE, Dose: 250, 500 MG/KG IN CORN OIL FOR 41-103 WK (STUDY DURATION: 41-103 WK), Tumor Site: Type of Lesion: LIVER: HEPATOCELLULAR CARCINOMA); “inactive; negative” (Species: RAT, Strain/Sex: F344/FEMALE, Route: GAVAGE, Dose: 0, 75, 150 MG/KG IN CORN OIL FOR 103 WK (STUDY DURATION: 103 WK), Dose: 0, 75, 150 MG/KG IN CORN OIL FOR 103 WK (STUDY DURATION: 103 WK)); “equivocal” (Species: RAT, Strain/Sex: F344/MALE, Route: GAVAGE, Dose: 0, 75, 150 MG/KG IN CORN OIL FOR 103 WK (STUDY DURATION: 103 WK), Dose: 0, 75, 150 MG/KG IN CORN OIL FOR 103 WK (STUDY DURATION: 103 WK), Tumor Site: Type of Lesion: KIDNEY: TUBULAR CELL ADENOMA).
On to `Oc1cccc2cccnc12`, for which the carcinogen call (Species: MOUSE, Strain/Sex: B6C3F1/FEMALE, Route: ORAL, Dose: 0, 1500, 3000 PPM IN DIET FOR 103 WK, Dose: 0, 1500, 3000 PPM IN DIET FOR 103 WK) was “inactive; negative”; the carcinogen call (Species: MOUSE, Strain/Sex: B6C3F1/MALE, Route: ORAL, Dose: 0, 1500, 3000 PPM IN DIET FOR 103 WK, Dose: 0, 1500, 3000 PPM IN DIET FOR 103 WK) was “inactive; negative”; the carcinogen call (Species: RAT, Strain/Sex: F344/FEMALE, Route: ORAL, Dose: 0, 1500, 3000 PPM IN DIET FOR 103 WK, Dose: 0, 1500, 3000 PPM IN DIET FOR 103 WK) is “inactive; negative”; the carcinogen call (Species: RAT, Strain/Sex: F344/MALE,FEMALE, Route: ORAL, Dose: 0.1% IN DIET FOR 2 YR) is “inactive; negative”; the carcinogen call (Species: RAT, Strain/Sex: F344/MALE, Route: ORAL, Dose: 0, 1500, 3000 PPM IN DIET FOR 103 WK, Dose: 0, 1500, 3000 PPM IN DIET FOR 103 WK) is “inactive; negative”.
With `CC(C)OS(C)(=O)=O`, the carcinogen call (Species: MOUSE, Strain/Sex: ICR/FEMALE, Route: SUBCUTANEOUS, Dose: 0, 10 UMOL/MOUSE IN TRIOCTANOIN INTO LEFT FLANK, 1/WK FOR 139 D (STUDY DURATION: 139 D), Tumor Site: Type of Lesion: THYMUS GLAND: LYMPHOMA) was “active; positive”.
Take `[N-]=[N+]=CC(=O)OC[C@H](N)C(=O)O`: for the setting “Species: RAT, Strain/Sex: WISTAR/MALE,FEMALE, Route: INTRAPERITONEAL, Dose: 5 MG/KG 1-2 TIMES PER WK FOR 6 MO, Tumor Site: Type of Lesion: KIDNEY: PAPILLARY EPITHELIAL TUMOR, CLEAR CELL TUMOR, TUBULAR ADENOMA, PANCREAS: ADENOCARCINOMA”, the carcinogen call is “active; positive”.
Regarding `ClC1=C(Cl)[C@]2(Cl)[C@H]3[C@H]([C@@H]4C=C[C@H]3C4)[C@@]1(Cl)C2(Cl)Cl`, the carcinogen call (Species: MOUSE, Strain/Sex: B6C3F1/FEMALE, Route: ORAL, Dose: 0, 3, 6 PPM IN DIET FOR 80 WK (STUDY DURATION: 112-113 WK), Dose: 0, 3, 6 PPM IN DIET FOR 80 WK (STUDY DURATION: 112-113 WK)) was “inactive; negative”; the carcinogen call (Species: MOUSE, Strain/Sex: B6C3F1/MALE, Route: ORAL, Dose: 0, 4, 8 PPM IN DIET FOR 74 WK (STUDY DURATION: 111-112 WK), Dose: 0, 4, 8 PPM IN DIET FOR 74 WK (STUDY DURATION: 111-112 WK), Tumor Site: Type of Lesion: LIVER: HEPATOCELLULAR CARCINOMA) is “active; positive”; the carcinogen call (Species: RAT, Strain/Sex: OSBORNE-MENDEL/FEMALE, Route: ORAL, Dose: 0, 30, 60 PPM IN DIET FOR 80 WK (STUDY DURATION: 112-113 WK), Dose: 0, 30, 60 PPM IN DIET FOR 80 WK (STUDY DURATION: 112-113 WK), Tumor Site: Type of Lesion: THYROID GLAND: FOLLICULAR CELL ADENOMA OR CARCINOMA, ADRENAL GLAND: CORTICAL ADENOMA) is given as “equivocal”; the carcinogen call (Species: RAT, Strain/Sex: OSBORNE-MENDEL/MALE, Route: ORAL, Dose: 0, 30, 60 PPM IN DIET FOR 74 WK (STUDY DURATION: 111-112 WK), Dose: 0, 30, 60 PPM IN DIET FOR 74 WK (STUDY DURATION: 111-112 WK), Tumor Site: Type of Lesion: THYROID GLAND: FOLLICULAR CELL ADENOMA OR CARCINOMA) was “equivocal”.
